In patent US9186361B2, “Compounds and compositions for the treatment of parasitic diseases” (Novartis AG, priority 2013, dated 2015):

How the values were obtained:
Type in all cases: cell-based
[1] = tested on: Leishmania donovani axenic amastigote parasites; experiment: Assay for Leishmania proliferation in vitro (axenic amastigotes, Cell TiterGlo); settings: 48 h, 2 day incubation, read-out: L. donovani amastigotes EC50
Protocol: Leishmania donovani axenic amastigote parasites are grown at 37° C., 5% CO2 in media made of RPMI 1640, 4 mM L-glutamine, 20% heat inactivated FBS, 100 units/ml of penicillin and 100 μg/ml of streptomycin, 23 μM Folic Acid, 100 μM Adenosine, 22 mM D-glucose, 25 mM MES. The pH of media is adjusted to 5.5 at 37° C. using HCl. 20 μL of media is first dispensed into 384 well plates and […] of the compounds of invention in DMSO are added to the plate wells. At the same time control compounds and DMSO are added to plates to serve as the positive and negative controls, respectively. 40 μL of parasite culture (9600 parasites) are then added to the plate wells. The plates are then placed into incubators. After 2 day incubation, 20 μL of Cell TiterGlo (Promega) is added to the plate wells. The luminescence signal of each well is measured using the Envision reader (Perkin Elmer). The percentage inhibition of 50%, EC50, is calculated for each of the compounds.

[2] = tested on: Trypanosoma cruzi amastigotes cultured in 3T3 fibroblast cells; experiment: Assay for proliferation of kinetoplastid parasite Trypanosoma cruzi (beta-galactosidase/CPRG readout); settings: NIH3T3, 144 h, Tulahuen strain in 3T3 cells, 6 day incubation, read-out: T cruzi EC50
Source text: Compounds of the invention can be assayed to measure their capacity to inhibit proliferation of kinetoplastid parasite Trypanosoma cruzi. The screening procedure is for identifying compounds with inhibitor activity against Trypanosoma cruzi amastigotes cultured in 3T3 fibroblast cells. The assay is done using the mammalian stage (amastigotes) of T. cruzi that replicates in the intracellular space of host cells. The host cells are initially infected with the culture-derived trypomastigotes that rapidly invade and then divide as amastigotes. The protocol uses the Tulahuen strain of T. cruzi that has been engineered to express the E. coli beta-galactosidase gene (Lac-Z) (Antimicr. Agents Chemoth. 40:2592, 1996). This allows for a colorimetric readout by using the substrate CPRG and an absorbance plate reader.
3T3 fibroblast cells are re-suspended in RPMI-1640 medium without phenol red medium supplemented with 10% FBS (heat inactivated), 100 μg/ml penicillin, and 100 μg/ml streptomycin. Forty μL of suspension (1,000 cells) is dispensed into 384-well plates and incubated overnight at 37° C. temperature and in atmosphere containing 5% CO2. The following day, 100 nL of compounds of the invention in DMSO are added to plate wells containing 3T3 cells. At the same time control compounds (benznidazole and nifurtimox) and DMSO are added to plates to serve as the positive and negative controls, respectively. After that, 10 μL of media containing 10,000 T. cruzi trypomastigotes are added to each plate well and plates are placed back into incubators. After 6 day incubation, 10 μL of reagent solution (0.6 mM CPRG, 0.6% NP-40 in PBS) is added to plates and incubated at room temperature for 2 hours. Absorbance is then measured on SpectraMax Gemini fluorimeter to determine relative number of T. cruzi cells present in each plate well. The percentage inhibition of 50%, EC50, is calculated for each compound.

[3] = tested on: L. donovani HU3 strain in mouse peritoneal macrophages; experiment: Proliferation of L. donovani in mouse peritoneal macrophages (SybrGreen, high-content imaging); settings: Leishmania donovani, Peritoneal macrophage, 120 h; infected mouse peritoneal macrophages, 5 days; read-out: L. donavani Macrophage EC50
Source text: The activity of a compound according to the present invention for inhibition of parasitemai can be assessed by the parasite proliferation assay. The assay measures the increase in the parasite number in the assayed plate well using a DNA intercalating dye, SYBR Green I® dye (INVITROGEN) to stain Leishmania cell nuclei. It is understood that the assays illustrate the invention without in any way limiting the scope of the invention.
L. donovani HU3 strain is propagated by infecting BALBc mice through tail vein injection with 10^7 Leishmania parasites. Infected mice are allowed to develop infection during 9-11 weeks post-infection. During this time, the parasites accumulate in the infected mouse spleens to large numbers, and the infected mice serve as the source of parasites for the in vitro measurement of compound efficacies. To assay a compound for anti-leishmanial activity, peritoneal macrophages isolated from non-infected BALBc mice are seeded into 384-well plates at density 2×10^4 macrophages per well in 25 mL of medium (RPMI1640, 10% fetal serum albumin, 10 mM HEPES, 1 mM sodium pyruvate, 1% Pen/Strep). Subsequently, the seeded plates are placed into an incubator set to maintain 37° C. temperature and atmosphere with 5% CO2. The next day, Leishmania parasites are isolated from the spleens of mice infected for 9-11 weeks and 4×10^5 isolated parasites in […] of the above media are added to each plate well. Plates are then returned into incubators and infection is allowed to proceed for 24 hours. After the infection of macrophages is completed, […] of compounds of the invention in the above medium, which also contains 5% DMSO, are added to plate wells containing infected macrophages. At the same time control compounds (miltefosine and amphotericin B) and DMSO are added to plates to serve as the positive and negative controls, respectively. After the compound addition, the plates are returned into incubator and cells infected with parasites are cultured for 5 days. At the end of cultivation, […] of 8% paraformaldehyde is added to plate wells and incubated for 15 min at room temperature. Following the incubation, the paraformaldehyde from plate wells is aspirated, and […] of PBS containing 0.2% Triton X-100 is added to wells. After 15 min incubation, the solution is aspirated from wells again, and replaced with SybrGreen Dye solution in PBS (1:125,000 dilution). Infected cells are imaged with Evotec Opera high-content microscope, and the number of parasites in well is determined by counting parasite nuclei visualized by staining with SybrGreen dye. The percentage inhibition of 50%, EC50, is calculated for each compound.
The inhibitory efficacy of the compounds of the invention against proliferation of L. donovani in mouse peritoneal macrophages is provided in Table I.

[4] = tested on: Trypanosoma brucei Lister 427 strain; experiment: Assay for proliferation of kinetoplastid parasite Trypanosoma brucei (Cell Titer Glo); settings: bloodstream form, 48 hours, read-out: T. brucei EC50
Source text: The proliferation is quantified by the addition of Cell Titer Glo (Promega®) a luminescent cell viability assay that measures the number of viable cells in culture based on the quantification of cellular ATP amount, which is an indicator of metabolically active cells. The following assay illustrates the invention without in any way limiting the scope of the invention. This parasite proliferation assay measures the increase in parasite growth using an assay that measures ATP activity, Cell Titer Glo®.
Trypanosoma brucei Lister 427 strain is grown in HMI-9 Trypanosome media for T. brucei bloodstream form. 30 μl of HMI-9 media is dispensed into 384 well assay plates. 200 nL of compounds of the invention (in DMSO), including anti-trypanosome controls (Pentamidine and suramin), are then transferred into the assay plates, as well as DMSO alone to serve as a negative control for inhibition. Then 25 μl of a suspension of T. brucei culture in HMI-9 media is dispensed into the assay plates. The final concentration of parasites in culture corresponds to 1.7% of 0.5 uM ATP activity with Cell Titer Glo® in HMI-9 media. The plates are placed in a 37° C. incubator for 48 hours in an atmospheric environment containing 5% CO2. 40 μl of Cell Titer Glo® is dispensed into the plates. The plates are then read for luminescence. The percentage inhibition of 50%, EC50, is calculated for each compound.

| Compound | EC50 [1] | EC50 [2] | EC50 [3] | EC50 [4] |
| --- | --- | --- | --- | --- |
| CC(C)OC(=O)Nc1cnc2nc(-c3cc(NC(=O)c4ccco4)ccc3Cl)[nH]c2c1 [Example 2, propan-2-yl N-{2-[2-chloro-5-(furan-2-amido)phenyl]-1H-imidazo[4,5-b]pyridin-6-yl}carbamate] | 0.19 µM | 0.142 µM | 0.315 µM | 39 nM |
| CCOC(=O)Nc1cnc2nc(-c3cccc(NC(=O)c4ccc(F)o4)c3)[nH]c2c1 [Example 3, ethyl N-{2-[3-(5-fluorofuran-2-amido)phenyl]-1H-imidazo[4,5-b]pyridin-6-yl}carbamate] | 7.7 µM | 2.23 µM | 2.47 µM | 230 nM |
| CCOC(=O)Nc1cnc2nc(-c3cc(NC(=O)c4ccco4)ccc3Cl)[nH]c2c1 [Example 6, ethyl N-{2-[2-chloro-5-(furan-2-amido)phenyl]-1H-imidazo[4,5-b]pyridin-6-yl}carbamate] | 0.58 µM | – | 1.42 µM | 34 nM |
| COC(=O)Nc1cnc2nc(-c3cc(NC(=O)c4ccco4)ccc3Cl)[nH]c2c1 [Example 9, methyl N-{2-[2-chloro-5-(furan-2-amido)phenyl]-1H-imidazo[4,5-b]pyridin-6-yl}carbamate] | 0.95 µM | – | 2.48 µM | 143 nM |
| CC(C)(COC(=O)Nc1cnc2nc(-c3cc(NC(=O)c4ccco4)ccc3Cl)[nH]c2c1)NC(=O)OC(C)(C)C [Example 15, tert-butyl N-{1-[({2-[2-chloro-5-(furan-2-amido)phenyl]-1H-imidazo[4,5-b]pyridin-6-yl}carbamoyl)oxy]-2-methylpropan-2-yl}carbamate] | 5.1 µM | 1.85 µM | 8.7 µM | 640 nM |
| O=C(Nc1ccc(Cl)c(-c2nc3ncc(NC(=O)C(O)CO)cc3[nH]2)c1)c1ccco1 (centres unmarked) [Example 18, N-{4-chloro-3-[6-(2,3-dihydroxypropanamido)-1H-imidazo[4,5-b]pyridin-2-yl]phenyl}furan-2-carboxamide] | 8.9 µM | – | 16.9 µM | 1720 nM |
| Nc1cnc2nc(-c3cc(NC(=O)c4ccco4)ccc3Cl)[nH]c2c1 [Example 20, N-(3-{6-amino-1H-imidazo[4,5-b]pyridin-2-yl}-4-chlorophenyl)furan-2-carboxamide] | 13.6 µM | 4.7 µM | 18.9 µM | 1380 nM |
| O=C(Nc1cccnc1)Nc1cnc2nc(-c3cc(NC(=O)c4ccco4)ccc3Cl)[nH]c2c1 [Example 21, N-[4-chloro-3-(6-{[(pyridin-3-yl)carbamoyl]amino}-1H-imidazo[4,5-b]pyridin-2-yl)phenyl]furan-2-carboxamide] | 17.7 µM | > 20 µM | > 50 µM | 1590 nM |
| CC(C)(CO)C(=O)Nc1cnc2nc(-c3cc(NC(=O)c4ccco4)ccc3Cl)[nH]c2c1 [Example 22, N-{4-chloro-3-[6-(3-hydroxy-2,2-dimethylpropanamido)-1H-imidazo[4,5-b]pyridin-2-yl]phenyl}furan-2-carboxamide] | 20.7 µM | – | > 50 µM | 760 nM |
| O=C(Nc1cnc2nc(-c3cc(NC(=O)c4ccco4)ccc3Cl)[nH]c2c1)OCCF [Example 53, 2-fluoroethyl N-{2-[2-chloro-5-(furan-2-amido)phenyl]-1H-imidazo[4,5-b]pyridin-6-yl}carbamate] | 1.31 µM | 3.2 µM | 1.74 µM | – |
| CS(=O)(=O)Nc1ccc(Cl)c(-c2nc3ncc(NS(C)(=O)=O)cc3[nH]2)c1 [Example 58, N-[2-(2-chloro-5-methanesulfonamidophenyl)-1H-imidazo[4,5-b]pyridin-6-yl]methanesulfonamide] | > 25 µM | > 20 µM | > 50 µM | – |
| CC(C)S(=O)(=O)Nc1ccc(Cl)c(-c2nc3ncc(NS(=O)(=O)C(C)C)cc3[nH]2)c1 [Example 59, N-{2-[2-chloro-5-(propane-2-sulfonamido)phenyl]-1H-imidazo[4,5-b]pyridin-6-yl}propane-2-sulfonamide] | > 25 µM | > 20 µM | > 22.8 µM | – |
| CCOC(=O)Nc1cnc2nc(-c3cc(NC(=O)c4ccc(C#N)o4)ccc3Cl)[nH]c2c1 [Example 61, ethyl N-{2-[2-chloro-5-(5-cyanofuran-2-amido)phenyl]-1H-imidazo[4,5-b]pyridin-6-yl}carbamate] | 2.69 µM | > 20 µM | 3.13 µM | – |
| O=C(Nc1ccc(Cl)c(-c2nc3ncc(NC(=O)C4CNC4)cc3[nH]2)c1)c1ccco1 [Example 62, N-{2-[2-chloro-5-(furan-2-amido)phenyl]-1H-imidazo[4,5-b]pyridin-6-yl}azetidine-3-carboxamide] | > 25 µM | > 20 µM | > 28.8 µM | – |
| NCCC(=O)Nc1cnc2nc(-c3cc(NC(=O)c4ccc(F)o4)ccc3Cl)[nH]c2c1 [Example 73, N-{3-[6-(3-aminopropanamido)-1H-imidazo[4,5-b]pyridin-2-yl]-4-chlorophenyl}-5-fluorofuran-2-carboxamide] | > 25 µM | > 20 µM | > 50 µM | – |
| Nc1cnc2nc(-c3cccc(NC(=O)c4ccc(F)o4)c3)[nH]c2c1 [Example 79, N-(3-{6-amino-1H-imidazo[4,5-b]pyridin-2-yl}phenyl)-5-fluorofuran-2-carboxamide] | > 25 µM | 1.46 µM | 24.5 µM | – |
